{
  "source": "patent US20060110456A1",
  "about": "“Method for biocidal and/or biostatic treatment and compositions therefor” (NATIONAL UNIVERSITY OF SINGAPORE, priority 2004, published 2006)",
  "key": {"[1]": {"system": "hard fouling (barnacles, serpulids, spirorbids)", "assay": "Field testing of coated rods", "format": "in vivo", "parameters": "Total hard fouling, difference in mean cover (%), drug vs control / Barnacles, difference in mean cover (%), drug vs control: tested at 25 µg/ml of coating; Serpulids, difference in mean cover (%), drug vs control: tested at 25 µg/ml of coating mix", "procedure": "Fouling on rods occurs more rapidly than on flat panels, enabling rapid assessment of the performance of coatings.\n6 mm diameter glass rods were cut to 150 mm length and prepared prior to coating by baking in a furnace at 150° C. for 24 hours and then cooling in a dessicator.\nAll pharmaceuticals were obtained in commercially available form. All tablets were reduced to fine powder with a mortar and pestle, and capsules were opened to extract the contents. The amount of drug powder required to attain the desired concentrations for all tests was calculated from product dosage information and then measured by weight on a high-resolution electronic balance. This was added to the coating and mixed thoroughly prior to application to obtain the concentration of 25 ug active ingredient per ml of coating mix.\nThe commercial antifouling product used to benchmark field experiments was VC Offshore with Teflon® manufactured by International Coatings.\nFor our experiments, a reduced copper coating (“VC50”) was prepared by mixing approximately 20 g of #YBA779 into 100 ml of #YBA707. The prepared coating was then allowed to stand so that bubbles from the mixing process dissipated. 15 ml centrifuge tubes were filled with 10 mls of prepared coating. Prepared glass rods were then immersed in the coating to a height of 100 mm and then suspended on a frame to air dry until coating cured.\nFive replicate rods were tested for every experimental treatment, including controls. Two sets of controls were used, an uncoated blank control and a VC50 control without pharmaceutical additives. Rod were randomly arrayed on plastic vexar mesh attached to PVC frames and suspended at a depth of 10 cm from the water surface. […] Rods were examined visually weekly for the duration of testing, which typically lasts between 6 to 10 weeks. All fouling was scored as percentage cover of each category within a 6 mm×50 mm transect on each rod."}, "[2]": {"system": "marine bacteria (26 strains)", "assay": "Disk inhibition assay", "format": "cell-based, marine bacteria isolated from Singapore fouling communities", "conditions": "for zone of inhibition at 25 µg/disc: 25 μg per disc; for zone of inhibition at 50 µg/disc: 50 μg per disc", "outline": "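Tablets or capsule powders suspended in sterile water at 2 mg ml^−1 and loaded onto disks; antibiotic discs (Amp, Ery, Str, Tet) served as comparison. Disks placed on swabbed lawns on Marine Agar, incubated overnight in the dark at 30° C. Zone of clearing diameter measured by calipers; three replicates on three occasions.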"}, "[3]": {"conditions": "crude rank, best (1) to worst (8)"}, "[4]": {"conditions": "drug + VC50 rods vs VC50 control"}, "[5]": {"conditions": "drug + VC50 rods vs uncoated blank control"}, "[6]": {"conditions": "rods coated with drug + VC50, field test"}},
  "note": "Where a name gives a salt, the structure may show the parent alone. Read-outs that look alike come from different tables or passages of the source.",
  "data": [
    {"smiles": "CN1CCN(CCCN2c3ccccc3Sc3ccc(Cl)cc32)CC1", "note": "[PCZ, prochlorperazine maleate]", "values": [
      {"measurement": "Overall performance in field assay", "setting": "[1]; [3]", "result": 7},
      {"measurement": "Barnacles, difference in mean cover (%), drug vs VC50", "setting": "[1]; [4]", "result": "−7.67", "unit": "%"},
      {"measurement": "Serpulids, difference in mean cover (%), drug vs VC50", "setting": "[1]; [4]", "result": "−1.67", "unit": "%"},
      {"measurement": "Spirorbids, difference in mean cover (%), drug vs VC50", "setting": "[1]; [4]", "result": "−6.66", "unit": "%"},
      {"measurement": "Total hard fouling, difference in mean cover (%), drug vs VC50", "setting": "[1]; [4]", "result": "−16", "unit": "%"},
      {"measurement": "Barnacles, difference in mean cover (%), drug vs control", "setting": "[1]; [5]", "result": "−70.67", "unit": "%"},
      {"measurement": "Serpulids, difference in mean cover (%), drug vs control", "setting": "[1]; [5]", "result": "−3.33", "unit": "%"},
      {"measurement": "Spirorbids, difference in mean cover (%), drug vs control", "setting": "[1]; [5]", "result": "+15%"},
      {"measurement": "Total hard fouling, difference in mean cover (%), drug vs control", "setting": "[1]; [5]", "result": "−58", "unit": "%"},
      {"measurement": "Reduction of total hard fouling cover compared to VC50 alone", "setting": "[1]; drug at 25 ug per ml of VC50 coating", "result": 16, "unit": "%"},
      {"measurement": "Effect of addition of drug on antifouling performance of VC50 coating (total hard fouling)", "setting": "[1]; drug at 25 ug per ml of VC50 coating, in words", "result": "this reduction was not statistically significant"},
      {"measurement": "Barnacles Mean cover (%)", "setting": "[1]; [6]", "result": 22.33, "unit": "%"},
      {"measurement": "Serpulids Mean cover (%)", "setting": "[1]; [6]", "result": 0, "unit": "%"},
      {"measurement": "Spirorbids Mean cover (%)", "setting": "[1]; [6]", "result": 16.67, "unit": "%"},
      {"measurement": "Total hard fouling Mean cover (%)", "setting": "[1]; rods coated with drug + VC50, field test, percentage cover within 6 mm×50 mm transect", "result": 39, "unit": "%"},
      {"measurement": "Antibiotic activity against marine bacteria", "setting": "[2]", "result": "strongest activity"},
      {"measurement": "Antibiotic activity against marine bacteria", "setting": "[2]; [3]", "result": 3},
      {"measurement": "zone of inhibition at 25 µg/disc", "setting": "[2]; strain 1 (Rhodovulum)", "result": "< 5", "unit": "mm"},
      {"measurement": "zone of inhibition at 50 µg/disc", "setting": "[2]; strain 1 (Rhodovulum)", "result": "< 5", "unit": "mm"},
      {"measurement": "zone of inhibition at 25 µg/disc", "setting": "[2]; strain 2 (Erythrobacter)", "result": "< 5", "unit": "mm"},
      {"measurement": "zone of inhibition at 50 µg/disc", "setting": "[2]; strain 2 (Erythrobacter)", "result": "< 5", "unit": "mm"},
      {"measurement": "zone of inhibition at 25 µg/disc", "setting": "[2]; strain 3 (Erythrobacter)", "result": "10 to 19", "unit": "mm"},
      {"measurement": "zone of inhibition at 50 µg/disc", "setting": "[2]; strain 3 (Erythrobacter)", "result": "10 to 19", "unit": "mm"},
      {"measurement": "zone of inhibition at 25 µg/disc", "setting": "[2]; strain 4 (Bacillus)", "result": "10 to 19", "unit": "mm"},
      {"measurement": "zone of inhibition at 50 µg/disc", "setting": "[2]; strain 4 (Bacillus)", "result": "10 to 19", "unit": "mm"},
      {"measurement": "zone of inhibition at 25 µg/disc", "setting": "[2]; strain 6 (Vibrio)", "result": "< 5", "unit": "mm"},
      {"measurement": "zone of inhibition at 50 µg/disc", "setting": "[2]; strain 6 (Vibrio)", "result": "5 to 9", "unit": "mm"},
      {"measurement": "zone of inhibition at 25 µg/disc", "setting": "[2]; strain 7 (Vibrio)", "result": "< 5", "unit": "mm"},
      {"measurement": "zone of inhibition at 50 µg/disc", "setting": "[2]; strain 7 (Vibrio)", "result": "< 5", "unit": "mm"},
      {"measurement": "zone of inhibition at 25 µg/disc", "setting": "[2]; strain 8 (Bacillus)", "result": "10 to 19", "unit": "mm"},
      {"measurement": "zone of inhibition at 50 µg/disc", "setting": "[2]; strain 8 (Bacillus)", "result": "10 to 19", "unit": "mm"},
      {"measurement": "zone of inhibition at 25 µg/disc", "setting": "[2]; strain 9 (Bacillus)", "result": "10 to 19", "unit": "mm"},
      {"measurement": "zone of inhibition at 50 µg/disc", "setting": "[2]; strain 9 (Bacillus)", "result": "10 to 19", "unit": "mm"},
      {"measurement": "zone of inhibition at 25 µg/disc", "setting": "[2]; strain 10 (Halobacillus)", "result": "10 to 19", "unit": "mm"},
      {"measurement": "zone of inhibition at 50 µg/disc", "setting": "[2]; strain 10 (Halobacillus)", "result": "10 to 19", "unit": "mm"},
      {"measurement": "zone of inhibition at 25 µg/disc", "setting": "[2]; strain 11 (Pseudomonas)", "result": "10 to 19", "unit": "mm"},
      {"measurement": "zone of inhibition at 50 µg/disc", "setting": "[2]; strain 11 (Pseudomonas)", "result": "10 to 19", "unit": "mm"},
      {"measurement": "zone of inhibition at 25 µg/disc", "setting": "[2]; strain 12 (Gordonia)", "result": "10 to 19", "unit": "mm"},
      {"measurement": "zone of inhibition at 50 µg/disc", "setting": "[2]; strain 12 (Gordonia)", "result": "20 to 29", "unit": "mm"},
      {"measurement": "zone of inhibition at 25 µg/disc", "setting": "[2]; strain 13 (Bacillus)", "result": "10 to 19", "unit": "mm"},
      {"measurement": "zone of inhibition at 50 µg/disc", "setting": "[2]; strain 13 (Bacillus)", "result": "10 to 19", "unit": "mm"},
      {"measurement": "zone of inhibition at 25 µg/disc", "setting": "[2]; strain 14 (Vibrio)", "result": "< 5", "unit": "mm"},
      {"measurement": "zone of inhibition at 50 µg/disc", "setting": "[2]; strain 14 (Vibrio)", "result": "< 5", "unit": "mm"},
      {"measurement": "zone of inhibition at 25 µg/disc", "setting": "[2]; strain 16 (Pseudoalteromonas)", "result": "< 5", "unit": "mm"},
      {"measurement": "zone of inhibition at 50 µg/disc", "setting": "[2]; strain 16 (Pseudoalteromonas)", "result": "< 5", "unit": "mm"},
      {"measurement": "zone of inhibition at 25 µg/disc", "setting": "[2]; strain 17 (Gordonia)", "result": "10 to 19", "unit": "mm"},
      {"measurement": "zone of inhibition at 50 µg/disc", "setting": "[2]; strain 17 (Gordonia)", "result": "20 to 29", "unit": "mm"},
      {"measurement": "zone of inhibition at 25 µg/disc", "setting": "[2]; strain 18 (Microbacterium)", "result": "10 to 19", "unit": "mm"},
      {"measurement": "zone of inhibition at 50 µg/disc", "setting": "[2]; strain 18 (Microbacterium)", "result": "20 to 29", "unit": "mm"},
      {"measurement": "zone of inhibition at 25 µg/disc", "setting": "[2]; strain 19 (Erythrobacter)", "result": "10 to 19", "unit": "mm"},
      {"measurement": "zone of inhibition at 50 µg/disc", "setting": "[2]; strain 19 (Erythrobacter)", "result": "10 to 19", "unit": "mm"},
      {"measurement": "zone of inhibition at 25 µg/disc", "setting": "[2]; strain 20", "result": "10 to 19", "unit": "mm"},
      {"measurement": "zone of inhibition at 50 µg/disc", "setting": "[2]; strain 20", "result": "10 to 19", "unit": "mm"},
      {"measurement": "zone of inhibition at 25 µg/disc", "setting": "[2]; strain 21", "result": "< 5", "unit": "mm"},
      {"measurement": "zone of inhibition at 50 µg/disc", "setting": "[2]; strain 21", "result": "10 to 19", "unit": "mm"},
      {"measurement": "zone of inhibition at 25 µg/disc", "setting": "[2]; strain 22", "result": "10 to 19", "unit": "mm"},
      {"measurement": "zone of inhibition at 50 µg/disc", "setting": "[2]; strain 22", "result": "10 to 19", "unit": "mm"},
      {"measurement": "zone of inhibition at 25 µg/disc", "setting": "[2]; strain 24", "result": "10 to 19", "unit": "mm"},
      {"measurement": "zone of inhibition at 50 µg/disc", "setting": "[2]; strain 24", "result": "10 to 19", "unit": "mm"},
      {"measurement": "zone of inhibition at 25 µg/disc", "setting": "[2]; strain 26", "result": "5 to 9", "unit": "mm"},
      {"measurement": "zone of inhibition at 50 µg/disc", "setting": "[2]; strain 26", "result": "10 to 19", "unit": "mm"},
      {"measurement": "zone of inhibition at 25 µg/disc", "setting": "[2]; strain 27", "result": "5 to 9", "unit": "mm"},
      {"measurement": "zone of inhibition at 50 µg/disc", "setting": "[2]; strain 27", "result": "10 to 19", "unit": "mm"},
      {"measurement": "zone of inhibition at 25 µg/disc", "setting": "[2]; strain 28", "result": "10 to 19", "unit": "mm"},
      {"measurement": "zone of inhibition at 50 µg/disc", "setting": "[2]; strain 28", "result": "10 to 19", "unit": "mm"},
      {"measurement": "zone of inhibition at 25 µg/disc", "setting": "[2]; strain 29", "result": "10 to 19", "unit": "mm"},
      {"measurement": "zone of inhibition at 50 µg/disc", "setting": "[2]; strain 29", "result": "10 to 19", "unit": "mm"},
      {"measurement": "zone of inhibition at 25 µg/disc", "setting": "[2]; strain 30", "result": "10 to 19", "unit": "mm"},
      {"measurement": "zone of inhibition at 50 µg/disc", "setting": "[2]; strain 30", "result": "10 to 19", "unit": "mm"}
    ]}
  ]
}
